Values quoted from earlier work in patent US7563896B2, “Process of obtaining type II dehydroquinase enzyme inhibitors and precursors thereof” (Universidade de Santiago de Compostela, priority 2003, dated 2009).

Tests used:
EPSP synthase = conditions: sixth enzyme of the shikimic acid pathway, read-out: inhibition constant

## O=C(O)CNCP(=O)(O)O [Glyphosphate]
malaria
  effectiveness against malaria: effective
EPSP synthase
  Ki: ~1 µM
